Patent publication EP4803513A1, “SUBSTITUTED QUINAZOLINE COMPOUND, PREPARATION METHOD THEREFOR, PHARMACEUTICAL COMBINATION THEREOF, AND USE THEREOF” (Hongyun Biotech Co., Ltd., priority 2023, dated 2025)

Columns and labels:
BRK-BaF3 cells = test: Cell antiproliferative activity assay (CCK-8), BRK-BaF3; assay type: cell-based; conditions: 72 h, CCK-8, 3 days incubation
Procedure: (§1) The activity of compounds against BRK kinase can be evaluated by their inhibition of the growth of the BRK kinase-stably transfected BaF3 cell line (BRK-BaF3) and wild-type BaF3 cells (WT-BaF3). […] The larger the ratio of the half-maximal growth inhibitory concentration (IC50) of a compound between WT-BaF3 and BRK-BaF3 cells, the better the selectivity of the compound.
(§2) BRK-BaF3, WT-BaF3, WEHI cell line, and breast cancer cell line T47D were cultured using RPMI 1640 Basal medium or DMEM (Dulbecco's Modified Eagle Medium) (Shanghai Peiyuan Biotechnology, L220KJ), supplemented with 10% FBS (Gibco, REF 10099-141C) and 1% P/S (Shanghai Peiyuan Biotechnology, S110JV), in an incubator (Thermo 3020) at 37°C with 5% CO2. Cell viability was above 95%. Cells were passaged at a 3:1 ratio every 3-4 days. For WT-BaF3 cells, WEHI cells were first cultured, and their culture supernatant was filtered through a 0.22 µm filter. This supernatant was added at 10% to the regular culture medium to supplement IL-3 required for WT-BaF3 cell proliferation, which served as the culture medium for WT-BaF3. For testing, cells were first collected and counted, then prepared into a cell suspension at 100,000 cells/mL and plated at 100 µL per well. Drug concentrations started from 10 µM and were serially diluted 3:1. After incubation for 3 days, 20 µL of CCK-8 detection reagent (Targetmol C005) was added to each well. After incubation for 2-4 hours, OD450 was measured using a microplate reader (Varioskan LUX, Thermo Scientific). After subtracting the blank background, the curve was fitted and the IC50 was calculated using XLfit software.

WT-BaF3 cells = test: Cell antiproliferative activity assay (CCK-8), WT-BaF3 (broad-spectrum cytotoxicity); assay type: cell-based; conditions: 72 h; WT-BaF3 cells (IL-3 supplemented), CCK-8, 3 days incubation
Procedure: as §1, §2

SMILES | IC50 (BRK-BaF3 cells) | IC50 (WT-BaF3 cells)
Cc1nn(CCO)cc1Nc1ncc2cc(-c3ccccn3)cc(C(C)C)c2n1 [I-1] | ≤ 20 nM | 500 to 2500 nM
Cc1nn(CCO)cc1Nc1ncc2cc(-c3ncccc3F)cc(C(C)C)c2n1 [I-2] | ≤ 20 nM | > 2500 nM
Cc1cccnc1-c1cc(C(C)C)c2nc(Nc3cn(CCO)nc3C)ncc2c1 [I-3] | ≤ 20 nM | > 2500 nM
COc1cccnc1-c1cc(C(C)C)c2nc(Nc3cn(CCO)nc3C)ncc2c1 [I-4] | ≤ 20 nM | > 2500 nM
Cc1nn(CCO)cc1Nc1ncc2cc(-c3ccccn3)cc(C(F)(F)F)c2n1 [I-9] | ≤ 20 nM | > 2500 nM
Cc1nn(CCO)cc1Nc1ncc2cc(-c3ccncc3)cc(C(C)C)c2n1 [I-10] | 20 to 100 nM | 500 to 2500 nM
Cc1nn(CCO)cc1Nc1ncc2cc(-c3ccncc3F)cc(C(C)C)c2n1 [I-11] | ≤ 20 nM | 500 to 2500 nM
COCCN(C)CCn1ncc(Nc2ncc3cc(-c4cc(=O)[nH]cc4C)cc(C(C)C)c3n2)c1C [III-55] | ≤ 20 nM | 
Cc1c[nH]c(=O)cc1-c1cc(C(C)C)c2nc(Nc3cn(CCN(C)CC(C)(C)O)nc3C)ncc2c1 [III-56] | ≤ 20 nM | 
Cc1c[nH]c(=O)cc1-c1cc(C(C)C)c2nc(Nc3cnn(CCN(C)CC(C)(C)O)c3C)ncc2c1 [III-57] | ≤ 20 nM | 
Cc1c[nH]c(=O)cc1-c1cc(C(C)C)c2nc(Nc3cn(CCN4CCOC[C@@H]4C)nc3C)ncc2c1 [III-59] | ≤ 20 nM | 
Cc1c[nH]c(=O)cc1-c1cc(C(C)C)c2nc(Nc3cnn(CCN4CCOC[C@@H]4C)c3C)ncc2c1 [III-60] | ≤ 20 nM | 
Cc1c[nH]c(=O)cc1-c1cc(C(C)C)c2nc(Nc3cn(CCN4CCOC[C@H]4C)nc3C)ncc2c1 [III-61] | 20 to 100 nM | 
Cc1c[nH]c(=O)cc1-c1cc(C(C)C)c2nc(Nc3cnn(CCN4CCOC[C@H]4C)c3C)ncc2c1 [III-62] | ≤ 20 nM | 
Cc1c[nH]c(=O)cc1-c1cc(C(C)C)c2nc(Nc3cn(CCN4CCCC4)nc3C)ncc2c1 [III-64] | ≤ 20 nM | 
Cc1c[nH]c(=O)cc1-c1cc(C(C)C)c2nc(Nc3cnn(CCN4CCCC4)c3C)ncc2c1 [III-65] | ≤ 20 nM | 

SMILES | IC50 (BRK-BaF3 cells) | IC50 (WT-BaF3 cells)
Cc1c[nH]c(=O)cc1-c1cc(C(C)C)c2nc(Nc3cn(CC(=O)NCCF)nc3C)ncc2c1 [III-70] | 20 to 100 nM | 
Cc1c[nH]c(=O)cc1-c1cc(C(C)C)c2nc(Nc3cn(CC(=O)NCC(F)F)nc3C)ncc2c1 [III-71] | 20 to 100 nM | 
Cc1c[nH]c(=O)cc1-c1cc(C(C)C)c2nc(Nc3cn(CC(=O)NC4CCC4)nc3C)ncc2c1 [III-72] | 20 to 100 nM | 
Cc1c[nH]c(=O)cc1-c1cc(C(C)C)c2nc(Nc3cn(CC(=O)NC4CC4)nc3C)ncc2c1 [III-73] | 20 to 100 nM | 
Cc1c[nH]c(=O)cc1-c1cc(C(C)C)c2nc(Nc3cn(CC(=O)N(C)C(C)C)nc3C)ncc2c1 [III-74] | 20 to 100 nM | 
C#CCN(C)C(=O)Cn1cc(Nc2ncc3cc(-c4cc(=O)[nH]cc4C)cc(C(C)C)c3n2)c(C)n1 [III-76] | 20 to 100 nM | 
Cc1c[nH]c(=O)cc1-c1cc(C2CC2)c2nc(Nc3cn(C)nc3C)ncc2c1 [III-80] | ≤ 20 nM | 
Cc1c[nH]c(=O)cc1-c1cc(C2CC2)c2nc(Nc3cnn(C)c3C)ncc2c1 [III-81] | ≤ 20 nM | 
Cc1c[nH]c(=O)cc1-c1cc(C2CC2)c2nc(Nc3cn(C4COC4)nc3C)ncc2c1 [III-82] | ≤ 20 nM | 
CCc1cc(-c2cc(=O)[nH]cc2C)cc2cnc(Nc3cn(C)nc3C)nc12 [III-84] | 20 to 100 nM | 
Cc1ccc2[nH]ncc2c1-c1cc(C(C)C)c2nc(Nc3cn(C)nc3C)ncc2c1 [III-89] | ≤ 20 nM | 
Cc1nccnc1-c1cc(C(C)C)c2nc(Nc3cnn(C)c3C)ncc2c1 [III-100] | ≤ 20 nM | 
Cc1cccnc1-c1cc(C(C)C)c2nc(Nc3cn(C)nc3C)ncc2c1 [III-119] | ≤ 20 nM | 
Cc1nn(C)cc1Nc1ncc2cc(-c3cccnc3C(F)F)cc(C(C)C)c2n1 [III-123] | ≤ 20 nM | 
Cc1ccncc1-c1cc(C(C)C)c2nc(Nc3cn(C4CCN(C)CC4)nc3C)ncc2c1 [III-129] | ≤ 20 nM | 
Cc1ccc(C#N)cc1-c1cc(C(C)C)c2nc(Nc3cn(C4CCN(C)CC4)nc3C)ncc2c1 [III-131] | ≤ 20 nM | 
